{"source": "patent US20200229407A1", "about": "(priority 2017, published 2020)", "origin": "cited, not measured here", "key": {"[1]": {"test_system": "cell-surface PrP"}, "[2]": {"test_system": "prion replication in neuroblastoma cells"}, "[3]": {"test_system": "scrapie agent", "settings": "mouse, in vivo"}}}
{"compound": "COc1ccc(CCN2CCC(Nc3nc4ccccc4n3Cc3ccc(F)cc3)CC2)cc1", "note": "[astemizole]", "values": [{"measurement": "cell-surface PrP", "setting": "[1]", "result": "reducing cell-surface PrP"}, {"measurement": "prion replication", "setting": "[2]", "result": "inhibiting prion replication"}]}
{"compound": "pentosan polysulphate [PPS]", "values": [{"measurement": "incubation period", "setting": "[3]", "result": "prolonged the incubation period"}]}
{"compound": "C=CC[C@@H]1/C=C(\\C)C[C@H](C)C[C@H](OC)[C@H]2O[C@@](O)(C(=O)C(=O)N3CCCC[C@H]3C(=O)O[C@H](/C(C)=C/[C@@H]3CC[C@@H](O)[C@H](OC)C3)[C@H](C)[C@@H](O)CC1=O)[C@H](C)C[C@@H]2OC", "note": "[tacrolimus]", "values": [{"measurement": "cell-surface PrP", "setting": "[1]", "result": "reducing cell-surface PrP"}, {"measurement": "prion replication", "setting": "[2]", "result": "inhibiting prion replication"}]}
